Several values for one entry are separate records, joined by “and”; a condition that tells them apart may be missing. Equal entries are not always repeated.
Tests used:
Assay type in all cases: cell-based
Nurr1-LBD point mutants [1] = biological target: T1, Nurr1-LBD point mutants (Mus musculus, UniProt Q06219, D594A); assay: Luciferase assay with point-mutants of Nurr1-LBD, SK-N-BE(2)C cells;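 note: Firefly luciferase normalized to beta-galactosidase activity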; details: Supplementary Fig. 2, D594A
T1 construct: expressed in transfected cells; host or cells: SK-N-BE(2)C
T1 sequence (Q06219 whole entry D594A, the tested form may be a part): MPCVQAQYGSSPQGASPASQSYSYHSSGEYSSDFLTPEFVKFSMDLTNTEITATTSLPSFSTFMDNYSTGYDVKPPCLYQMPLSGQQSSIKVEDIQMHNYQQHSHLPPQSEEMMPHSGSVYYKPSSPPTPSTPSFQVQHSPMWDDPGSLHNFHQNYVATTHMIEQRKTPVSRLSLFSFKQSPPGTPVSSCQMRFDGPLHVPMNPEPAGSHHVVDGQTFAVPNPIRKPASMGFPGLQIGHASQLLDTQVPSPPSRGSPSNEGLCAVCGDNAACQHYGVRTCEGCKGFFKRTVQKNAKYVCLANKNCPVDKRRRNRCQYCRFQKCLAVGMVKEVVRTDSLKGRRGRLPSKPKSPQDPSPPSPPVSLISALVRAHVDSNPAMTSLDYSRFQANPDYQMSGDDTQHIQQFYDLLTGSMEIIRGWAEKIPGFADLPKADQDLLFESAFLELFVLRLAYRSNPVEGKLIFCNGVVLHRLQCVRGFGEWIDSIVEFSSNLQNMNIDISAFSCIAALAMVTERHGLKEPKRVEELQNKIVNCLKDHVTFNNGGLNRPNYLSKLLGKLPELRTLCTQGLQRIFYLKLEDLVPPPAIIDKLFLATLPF
Protocol: (§1) Nurr1 transactivity was normalized to β-galactosidase activity.
(§2) Nurr1 mutants were generated using the QuikChange ǁ XL site-directed mutagenesis kit (Agilent Technologies) according to the manufacturer’s instruction. Mutagenesis reactions were carried out on the plasmid of mouse Nurr1 cloned into pcDNA3.1 backbone, and then verified by sequencing.

Nurr1-LBD point mutants [2] = biological target: T2, Nurr1-LBD point mutants (Mus musculus, UniProt Q06219, K590A); assay: as above; details: Supplementary Fig. 2, K590A
T2 construct: expressed in transfected cells; host or cells: SK-N-BE(2)C
T2 sequence (Q06219 whole entry K590A, the tested form may be a part): as the sequence (Q06219 whole entry D594A, the tested form may be a part) above, with K590A, A594D counted along it
Protocol: as §1, §2

Nurr1-LBD point mutants [3] = biological target: T3, Nurr1-LBD point mutants (Mus musculus, UniProt Q06219); assay: as above; details: Supplementary Fig. 2, WT
T3 construct: expressed in transfected cells; host or cells: SK-N-BE(2)C
T3 sequence (Q06219 whole entry, change not shown, the tested form may be a part): as the sequence (Q06219 whole entry D594A, the tested form may be a part) above, with A594D counted along it
Protocol: as §1, §2

Nurr1-LBD point mutants [4] = biological target: T4, Nurr1-LBD point mutants (Mus musculus, UniProt Q06219, L593A); assay: as above; details: Supplementary Fig. 2, L593A
T4 construct: expressed in transfected cells; host or cells: SK-N-BE(2)C
T4 sequence (Q06219 whole entry L593A, the tested form may be a part): as the sequence (Q06219 whole entry D594A, the tested form may be a part) above, with L593A, A594D counted along it
Protocol: as §1, §2

Nurr1-LBD point mutants [5] = biological target: T5, Nurr1-LBD point mutants (Mus musculus, UniProt Q06219, S441A); assay: as above; details: Supplementary Fig. 2, S441A
T5 construct: expressed in transfected cells; host or cells: SK-N-BE(2)C
T5 sequence (Q06219 whole entry S441A, the tested form may be a part): as the sequence (Q06219 whole entry D594A, the tested form may be a part) above, with S441A, A594D counted along it
Protocol: as §1, §2

Nor1 = biological target: T6, Nor1 (Homo sapiens, UniProt Q92570); assay: Luciferase reporter assay, Nor1 LBD, SK-N-BE(2)C cells; details: Fig. 1f; CQ 100 µM, 4A7C-301 20 µM, PGA1 10 µM
T6 construct: using LBD of NR4A subfamily members in SK-N-BE(2)C cells; expressed in transfected cells; host or cells: SK-N-BE(2)C
T6 sequence (Q92570 394-623 limits assumed): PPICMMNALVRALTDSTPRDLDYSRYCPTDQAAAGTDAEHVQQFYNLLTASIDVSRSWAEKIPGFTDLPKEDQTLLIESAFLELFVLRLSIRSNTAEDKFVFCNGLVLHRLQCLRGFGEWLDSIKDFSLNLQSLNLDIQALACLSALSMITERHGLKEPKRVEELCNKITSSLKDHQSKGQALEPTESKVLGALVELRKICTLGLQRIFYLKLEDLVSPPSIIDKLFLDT

## CCCCC[C@H](O)/C=C/[C@H]1C=CC(=O)[C@@H]1CCCCCCC(=O)O [PGA1, Prostaglandin A1]
Nurr1-LBD point mutants [1]
  Luciferase activity (fold): 12.291 fold and 11.1318 fold and 11.3674 fold
Nurr1-LBD point mutants [2]
  Luciferase activity (fold): 12.5774 fold and 11.0052 fold and 12.4192 fold
Nurr1-LBD point mutants [3]
  Luciferase activity (fold): 12.6112 fold and 12.2963 fold and 12.2061 fold
Nurr1-LBD point mutants [4]
  Luciferase activity (fold): 11.666 fold and 12.1821 fold and 11.0369 fold
Nurr1-LBD point mutants [5]
  Luciferase activity (fold): 12.6359 fold and 12.6237 fold and 10.9807 fold
Nor1
  Luciferase activity (fold), Nor1: 8.223 fold and 7.904 fold and 8.304 fold

Source: PMC10354055, “An optimized Nurr1 agonist provides disease-modifying effects in Parkinson’s disease models” (Nature Communications, 2023)
